Measurements published in ChEMBL document CHEMBL3872247, “Discovery of dual positive allosteric modulators (PAMs) of the metabotropic glutamate 2 receptor and CysLT1 antagonists for treating migraine headache” (Bioorg Med Chem Lett, 2017).

How the values were obtained:
[1] = target: Adrenergic receptor alpha-1 (Rattus norvegicus) (UniProt P15823+P23944+P43140); experiment: Displacement of [3H]prazosin from non-selective alpha1 adrenergic receptor in rat brain cortex at 10 uM measured after 60 mins by scintillation counting method; assay type: tissue-based
[2] = target: T1, Cysteinyl leukotriene receptor 1 (Homo sapiens, UniProt Q9Y271); experiment: Antagonist activity at human CysLT1 receptor expressed in Syrian hamster AV12-664 cells assessed as decrease in LTD4-induced intracellular calcium level pretreated followed by LTD4 addition by fluo-3 dye based FLIPR assay; assay type: functional, cell-based
T1 sequence (Q9Y271 whole entry): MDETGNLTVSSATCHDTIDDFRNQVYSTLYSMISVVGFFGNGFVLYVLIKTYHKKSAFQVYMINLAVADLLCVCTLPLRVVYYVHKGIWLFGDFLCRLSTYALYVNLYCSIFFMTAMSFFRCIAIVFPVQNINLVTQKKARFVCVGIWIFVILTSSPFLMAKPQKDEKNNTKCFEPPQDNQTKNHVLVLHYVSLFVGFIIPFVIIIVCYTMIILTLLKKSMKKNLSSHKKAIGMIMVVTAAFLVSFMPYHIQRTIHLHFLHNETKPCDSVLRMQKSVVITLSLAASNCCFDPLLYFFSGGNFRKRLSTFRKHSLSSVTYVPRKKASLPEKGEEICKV

[3] = target: 5-hydroxytryptamine receptor 4 (Homo sapiens, UniProt Q13639); experiment: Displacement of human recombinant 5HT4E receptor expressed in CHO cells after 60 mins by scintillation counting method; assay type: cell-based
[4] = target: T2, Metabotropic glutamate receptor 2 (Homo sapiens, UniProt Q14416); experiment: Antagonist activity at recombinant human mGlu2 receptor expressed in hamster AV12 cells expressing EAAT1 assessed as inhibition of glutamate-induced increase in intracellular Ca2+ level measured after 24 to 48 hrs by FLIPR assay; assay type: functional, cell-based
T2 sequence (Q14416 whole entry): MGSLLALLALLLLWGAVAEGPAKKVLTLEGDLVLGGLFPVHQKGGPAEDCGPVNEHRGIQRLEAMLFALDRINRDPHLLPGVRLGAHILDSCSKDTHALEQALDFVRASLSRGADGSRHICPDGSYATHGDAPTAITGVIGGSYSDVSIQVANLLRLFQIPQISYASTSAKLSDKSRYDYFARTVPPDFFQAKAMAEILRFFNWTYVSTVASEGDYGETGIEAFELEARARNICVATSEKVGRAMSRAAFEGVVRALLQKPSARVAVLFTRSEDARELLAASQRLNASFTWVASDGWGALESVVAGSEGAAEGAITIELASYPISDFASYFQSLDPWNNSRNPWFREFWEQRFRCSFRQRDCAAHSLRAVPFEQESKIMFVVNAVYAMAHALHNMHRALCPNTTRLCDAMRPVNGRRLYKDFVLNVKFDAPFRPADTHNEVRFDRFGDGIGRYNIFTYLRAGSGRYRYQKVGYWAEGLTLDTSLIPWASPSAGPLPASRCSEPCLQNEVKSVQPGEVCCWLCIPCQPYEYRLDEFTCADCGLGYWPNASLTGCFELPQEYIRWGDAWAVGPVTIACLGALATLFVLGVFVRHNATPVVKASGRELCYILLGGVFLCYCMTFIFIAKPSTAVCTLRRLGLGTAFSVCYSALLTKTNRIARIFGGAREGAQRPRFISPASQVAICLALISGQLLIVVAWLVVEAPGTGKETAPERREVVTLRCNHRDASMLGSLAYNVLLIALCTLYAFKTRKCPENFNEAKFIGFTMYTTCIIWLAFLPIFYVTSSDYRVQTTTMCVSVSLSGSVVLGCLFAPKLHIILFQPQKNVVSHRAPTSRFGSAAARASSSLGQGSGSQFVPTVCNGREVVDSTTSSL

[5] = target: 5-hydroxytryptamine receptor 1E (Homo sapiens, UniProt P28566); experiment: Activity at human 5HT1E receptor
[6] = Cmax in rat at 1 mg/kg, iv; assay type: ADME, organism-based; design: dose 1 mg/kg, route intravenous; conditions: in vivo
[7] = target: T3, Metabotropic glutamate receptor 1 (Homo sapiens, UniProt Q13255); experiment: Antagonist activity at recombinant human mGlu1 receptor expressed in hamster AV12 cells expressing EAAT1 assessed as inhibition of glutamate-induced intracellular Ca2+ level measured after 24 hrs by FLIPR assay; assay type: functional, cell-based
T3 sequence (Q13255 whole entry): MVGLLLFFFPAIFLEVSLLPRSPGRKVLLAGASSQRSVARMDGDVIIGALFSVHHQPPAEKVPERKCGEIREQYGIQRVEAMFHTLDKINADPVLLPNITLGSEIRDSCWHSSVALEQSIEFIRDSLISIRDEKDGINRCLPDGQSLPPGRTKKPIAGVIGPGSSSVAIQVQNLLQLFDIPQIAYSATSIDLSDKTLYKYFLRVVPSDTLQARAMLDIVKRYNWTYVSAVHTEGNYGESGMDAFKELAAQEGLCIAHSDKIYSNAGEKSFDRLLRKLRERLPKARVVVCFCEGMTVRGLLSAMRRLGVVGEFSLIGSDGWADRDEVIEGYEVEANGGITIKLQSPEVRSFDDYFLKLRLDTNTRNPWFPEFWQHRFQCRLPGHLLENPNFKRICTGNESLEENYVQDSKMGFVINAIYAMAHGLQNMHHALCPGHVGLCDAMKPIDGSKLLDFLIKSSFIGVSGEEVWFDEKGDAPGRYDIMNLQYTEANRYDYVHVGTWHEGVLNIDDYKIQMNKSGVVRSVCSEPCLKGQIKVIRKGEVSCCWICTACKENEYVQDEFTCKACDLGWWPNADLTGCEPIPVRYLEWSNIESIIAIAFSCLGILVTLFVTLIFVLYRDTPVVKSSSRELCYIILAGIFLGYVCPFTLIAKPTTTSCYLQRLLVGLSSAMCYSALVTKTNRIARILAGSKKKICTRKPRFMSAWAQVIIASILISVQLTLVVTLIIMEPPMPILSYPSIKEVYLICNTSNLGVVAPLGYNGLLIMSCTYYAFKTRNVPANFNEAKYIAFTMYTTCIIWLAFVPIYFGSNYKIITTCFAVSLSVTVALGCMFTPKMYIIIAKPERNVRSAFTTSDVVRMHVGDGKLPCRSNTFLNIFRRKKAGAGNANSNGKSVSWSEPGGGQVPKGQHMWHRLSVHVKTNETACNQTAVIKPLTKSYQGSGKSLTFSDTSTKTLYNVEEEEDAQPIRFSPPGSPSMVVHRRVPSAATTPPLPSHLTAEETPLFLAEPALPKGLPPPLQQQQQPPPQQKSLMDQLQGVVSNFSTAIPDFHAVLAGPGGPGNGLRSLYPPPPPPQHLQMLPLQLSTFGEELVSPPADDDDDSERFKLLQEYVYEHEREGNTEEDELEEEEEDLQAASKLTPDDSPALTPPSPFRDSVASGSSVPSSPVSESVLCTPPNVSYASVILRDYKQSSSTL

[8] = Ratio of Cmax in rat to EC50 for human CysLT1 expressed in Syrian hamster AV12-664 cells
[9] = target: 5-hydroxytryptamine receptor 1D (Homo sapiens, UniProt P28221); experiment: Activity at human 5HT1D receptor
[10] = target: T3, Metabotropic glutamate receptor 1; experiment: Positive allosteric modulation of recombinant human mGlu1 expressed in hamster AV12 cells expressing EAAT1 assessed as potentiation of glutamate-induced intracellular Ca2+ level measured after 24 hrs by FLIPR assay; assay type: functional, cell-based
[11] = target: Metabotropic glutamate receptor 8 (Homo sapiens) (UniProt O00222); experiment: Positive allosteric modulation of recombinant human mGlu8 expressed in hamster AV12 cells expressing EAAT1 assessed as potentiation of glutamate-induced intracellular Ca2+ level at 20 uM after 24 hrs by FLIPR assay; assay type: functional, cell-based
Chain of Metabotropic glutamate receptor 8 (Homo sapiens) (O00222 whole entry): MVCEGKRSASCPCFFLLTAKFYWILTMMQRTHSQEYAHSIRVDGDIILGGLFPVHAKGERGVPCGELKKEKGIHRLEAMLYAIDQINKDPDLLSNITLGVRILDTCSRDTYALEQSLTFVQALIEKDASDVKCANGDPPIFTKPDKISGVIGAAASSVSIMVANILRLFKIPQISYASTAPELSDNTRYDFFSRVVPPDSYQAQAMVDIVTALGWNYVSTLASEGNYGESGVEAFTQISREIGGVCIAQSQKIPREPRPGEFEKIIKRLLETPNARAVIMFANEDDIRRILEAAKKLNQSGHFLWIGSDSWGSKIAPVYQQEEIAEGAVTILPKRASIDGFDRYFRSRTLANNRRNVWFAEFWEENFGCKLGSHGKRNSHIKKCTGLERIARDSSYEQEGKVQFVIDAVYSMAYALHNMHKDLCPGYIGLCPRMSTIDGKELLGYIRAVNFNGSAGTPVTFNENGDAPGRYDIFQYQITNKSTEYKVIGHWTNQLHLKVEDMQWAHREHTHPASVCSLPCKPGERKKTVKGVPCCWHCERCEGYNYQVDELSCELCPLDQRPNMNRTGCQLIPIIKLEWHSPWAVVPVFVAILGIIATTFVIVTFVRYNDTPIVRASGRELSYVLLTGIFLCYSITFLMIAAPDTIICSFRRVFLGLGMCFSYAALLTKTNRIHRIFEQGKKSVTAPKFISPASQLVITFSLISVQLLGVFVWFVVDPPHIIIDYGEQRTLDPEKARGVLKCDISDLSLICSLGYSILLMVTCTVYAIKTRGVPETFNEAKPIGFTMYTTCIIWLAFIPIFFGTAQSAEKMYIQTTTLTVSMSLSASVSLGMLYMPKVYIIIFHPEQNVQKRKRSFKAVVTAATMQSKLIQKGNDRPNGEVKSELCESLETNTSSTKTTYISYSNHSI

[12] = target: Metabotropic glutamate receptor 8 (Homo sapiens) (UniProt O00222); experiment: Agonist activity at recombinant human mGlu8 expressed in hamster AV12 cells expressing EAAT1 assessed as increase in intracellular Ca2+ level at 30 uM after 24 hrs by FLIPR assay; assay type: functional, cell-based
[13] = target: T2, Metabotropic glutamate receptor 2; experiment: Agonist activity at recombinant human mGlu2 receptor expressed in hamster AV12 cells expressing EAAT1 assessed as increase in intracellular calcium level measured after 24 to 48 hrs by FLIPR assay; assay type: functional, cell-based
[14] = target: 5-hydroxytryptamine receptor 1B (Homo sapiens, UniProt P28222); experiment: Activity at human 5HT1B receptor
[15] = target: Metabotropic glutamate receptor 4 (Homo sapiens) (UniProt Q14833); experiment: Positive allosteric modulation of recombinant human mGlu4 receptor expressed in hamster AV12 cells expressing EAAT1 assessed as potentiation of glutamate-induced intracellular Ca2+ level at 20 uM after 24 hrs by FLIPR assay; assay type: functional, cell-based
Chain of Metabotropic glutamate receptor 4 (Homo sapiens) (Q14833 whole entry): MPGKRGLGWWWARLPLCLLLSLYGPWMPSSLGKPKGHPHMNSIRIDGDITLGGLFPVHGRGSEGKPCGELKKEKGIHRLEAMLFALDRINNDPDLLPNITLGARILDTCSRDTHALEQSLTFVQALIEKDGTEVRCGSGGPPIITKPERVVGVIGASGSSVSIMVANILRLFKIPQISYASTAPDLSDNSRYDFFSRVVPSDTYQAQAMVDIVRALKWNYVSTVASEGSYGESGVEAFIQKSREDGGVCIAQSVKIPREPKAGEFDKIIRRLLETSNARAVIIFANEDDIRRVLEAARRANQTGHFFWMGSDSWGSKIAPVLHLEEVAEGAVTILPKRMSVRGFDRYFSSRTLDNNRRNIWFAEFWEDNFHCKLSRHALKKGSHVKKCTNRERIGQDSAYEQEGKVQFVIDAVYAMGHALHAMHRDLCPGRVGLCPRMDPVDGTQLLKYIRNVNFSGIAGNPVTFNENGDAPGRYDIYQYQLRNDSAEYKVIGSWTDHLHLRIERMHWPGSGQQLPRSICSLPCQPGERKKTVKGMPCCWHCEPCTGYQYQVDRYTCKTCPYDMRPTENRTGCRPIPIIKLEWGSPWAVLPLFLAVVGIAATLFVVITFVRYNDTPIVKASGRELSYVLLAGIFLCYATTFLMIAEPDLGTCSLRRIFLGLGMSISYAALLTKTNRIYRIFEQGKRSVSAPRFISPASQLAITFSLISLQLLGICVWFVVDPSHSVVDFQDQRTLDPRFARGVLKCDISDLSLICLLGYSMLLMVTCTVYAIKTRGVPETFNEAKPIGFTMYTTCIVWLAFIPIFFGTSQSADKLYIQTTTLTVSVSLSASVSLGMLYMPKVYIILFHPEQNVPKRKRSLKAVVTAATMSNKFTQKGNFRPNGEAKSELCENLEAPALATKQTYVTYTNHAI

[16] = target: Metabotropic glutamate receptor 5 (Homo sapiens, UniProt P41594); experiment: Antagonist activity at recombinant human mGlu5 receptor expressed in hamster AV12 cells expressing EAAT1 assessed as inhibition of glutamate-induced intracellular Ca2+ level measured after 24 hrs by FLIPR assay; assay type: functional, cell-based
Chain of Metabotropic glutamate receptor 5 (P41594 whole entry): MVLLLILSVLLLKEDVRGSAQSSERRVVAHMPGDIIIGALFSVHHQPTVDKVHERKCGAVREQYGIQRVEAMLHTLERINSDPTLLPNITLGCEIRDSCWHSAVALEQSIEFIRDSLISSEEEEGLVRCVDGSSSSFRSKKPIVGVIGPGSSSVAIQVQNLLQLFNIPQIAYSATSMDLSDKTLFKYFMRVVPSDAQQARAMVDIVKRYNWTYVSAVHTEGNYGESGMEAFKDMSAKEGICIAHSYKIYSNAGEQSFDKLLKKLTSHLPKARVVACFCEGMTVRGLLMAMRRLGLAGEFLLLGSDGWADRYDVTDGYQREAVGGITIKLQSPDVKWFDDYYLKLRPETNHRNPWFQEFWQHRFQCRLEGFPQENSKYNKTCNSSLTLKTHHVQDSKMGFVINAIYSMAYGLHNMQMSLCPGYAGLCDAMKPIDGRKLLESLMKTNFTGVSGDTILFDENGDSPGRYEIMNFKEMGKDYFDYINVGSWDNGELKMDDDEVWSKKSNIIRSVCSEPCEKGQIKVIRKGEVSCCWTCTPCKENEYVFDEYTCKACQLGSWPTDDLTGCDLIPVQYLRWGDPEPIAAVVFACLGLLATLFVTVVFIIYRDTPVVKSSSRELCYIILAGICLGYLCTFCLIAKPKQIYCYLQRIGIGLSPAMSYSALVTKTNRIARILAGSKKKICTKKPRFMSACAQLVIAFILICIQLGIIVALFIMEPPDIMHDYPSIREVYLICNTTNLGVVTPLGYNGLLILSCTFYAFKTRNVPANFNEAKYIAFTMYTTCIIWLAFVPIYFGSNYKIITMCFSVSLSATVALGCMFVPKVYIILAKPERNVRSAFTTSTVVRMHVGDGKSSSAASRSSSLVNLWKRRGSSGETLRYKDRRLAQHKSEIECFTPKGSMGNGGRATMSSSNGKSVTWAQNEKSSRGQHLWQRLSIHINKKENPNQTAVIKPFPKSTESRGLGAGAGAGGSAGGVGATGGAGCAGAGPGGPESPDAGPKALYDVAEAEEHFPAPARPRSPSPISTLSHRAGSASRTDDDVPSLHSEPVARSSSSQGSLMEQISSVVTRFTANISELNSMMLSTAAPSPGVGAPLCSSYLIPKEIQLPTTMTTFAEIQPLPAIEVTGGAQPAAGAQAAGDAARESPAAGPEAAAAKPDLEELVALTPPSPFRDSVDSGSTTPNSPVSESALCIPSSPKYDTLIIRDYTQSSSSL

[17] = target: T2, Metabotropic glutamate receptor 2; experiment: Positive allosteric modulation of recombinant human mGlu2 receptor expressed in hamster AV12 cells expressing EAAT1 assessed as potentiation of glutamate-induced intracellular calcium level measured after 24 to 48 hrs by FLIPR assay; assay type: functional, cell-based
[18] = Cmax in rat at 1 mg/kg, po; assay type: ADME, organism-based; design: dose 1 mg/kg, route oral; conditions: in vivo
[19] = target: Adenosine receptor A1 (Homo sapiens) (UniProt P30542); experiment: Displacement of [3H]DPCPX from human adenosine A1 receptor at 10 uM measured after 60 mins by scintillation counting method
[20] = Cmax in dog at 1 mg/kg, po; assay type: ADME, organism-based, Canis lupus familiaris; design: dose 1 mg/kg, route oral; conditions: in vivo
Rattus norvegicus = species: Rattus norvegicus; experiment: Displacement of [3H]D888 from L-type calcium channel verapamil binding site in rat cerebral cortex at 10 uM measured after 120 mins by scintillation counting method

For `CC(=O)c1ccc(OCc2ccc(Oc3cc(-c4nn[nH]n4)ccn3)cc2)c(C)c1O`, the inhibition [1] was 5.3%, the IC50 [2] was 0.0241 µM and the Ki [3] was over 6.31 µM. It also gave an IC50 [4] of over 12.5 µM, a Ki [5] of over 5.37 µM and a Cmax [6] of 2160 ng/mL. The IC50 [7] was over 8 µM, the Ratio [8] was 7.8 and the Ki [9] was over 2.4 µM. The EC50 [10] was over 12.5 µM, the Activity [11] was under 20% and the Activity [12] was under 20%. It also gave an EC50 [13] of over 25 µM, a Ki [14] of over 3.58 µM and an Activity [15] of under 40%. For the same molecule, the IC50 [16] was over 12.5 µM, the EC50 [17] was 0.201 to 0.287 µM and the Cmax [18] was 78 ng/mL. The inhibition [19] was -4.5%, the Cmax [20] was 143 ng/mL and the inhibition (Rattus norvegicus) was 63.1%.
